{"source": "patent US11065209B2", "about": "“Use of cannabidiol in the treatment of epilepsy” (GW Research Limited, priority 2015, dated 2021)", "key": {"seizures": {"system": "seizures", "details": "as described in the literature; cited from earlier work"}, "[1]": {"system": "seizures in patients with Tuberous Sclerosis Complex (TSC)", "assay": "Expanded access compassionate use program: CBD added to baseline AED in children and young adults with treatment-resistant Tuberous Sclerosis Complex, seizure diaries", "type": "in vivo, human", "protocol": "The terms “50% responder” and “50% reduction in seizure” are both terms used in clinical studies. In the present application the terms define the percentage of subjects that experienced a greater than or equal to 50% reduction in the total number of seizures during treatment with CBD in comparison to the number experienced during the baseline period before the CBD was administered.\nThese subjects were tested with a highly purified extract of cannabidiol (CBD) obtained from a cannabis plant. The participants in the study were part of an expanded access compassionate use program for CBD.\nAll of these patients diagnosed with TSC presented with one or more types of seizure including tonic, tonic-clonic, atonic, absence, focal seizures with impairment and focal seizures which evolve to secondary generalised seizures.\nAll patients entered a baseline period of 4 weeks when parents/caregivers kept prospective seizure diaries, noting all countable seizure types.\nThe patients then received a highly purified CBD extract (greater than 98% CBD w/w) in sesame oil, of known and constant composition, at a dose of 5 mg/kg/day in addition to their baseline anti-epileptic drug (AED) regimen.\nLaboratory testing for hematologic, liver, kidney function, and concomitant AED levels was performed at baseline, and after CBD therapy.\nAll patients were taking at least two concomitant anti-epileptic drugs. These included clobazam; diazepam; lacosamide; lamotrigine; levetiracetam; lorazepam; nordiazepam; n-desmethylclobazam; phenytoin; valproic acid; zonisamide. The average number of concomitant antiepileptic drugs being taken was 2.7. The majority took either clobazam and/or valproic acid.\nThere were 12 children and young adult patients who received at least 3 months of treatment all of whom suffered from treatment-resistant epilepsy with a diagnosis of Tuberous Sclerosis Complex (TSC)."}, "seizures in mice": {"system": "seizures in mice", "details": "after pro-convulsant drugs or an electric current; cited from earlier work"}, "[2]": {"system": "seizures in adult patients with generalized epilepsy", "details": "eight adult patients with generalized epilepsy; cited from earlier work"}, "[3]": {"system": "seizures in adult patients", "details": "200 mg/day of pure CBD; four adult patients; cited from earlier work"}, "[4]": {"system": "seizures in institutionalized adult patients", "details": "200 mg/day of pure CBD; twelve institutionalized adult patients; open label; cited from earlier work"}, "[5]": {"system": "seizures in a child with Lennox-Gastaut syndrome", "details": "CBD in an oily solution; cited from earlier work"}, "[6]": {"assay": "Solubility of the drug substance in water", "type": "physicochemical", "source_text": "The drug substance, CBD is insoluble in water. Sesame oil was selected as an excipient to solubilize the drug substance."}, "[7]": {"details": "share of patients, n = 2, after 12 weeks of treatment"}, "[8]": {"details": "share of patients, n = 3, after 12 weeks of treatment"}, "[9]": {"details": "share of patients, n = 5, after 12 weeks of treatment"}, "[10]": {"details": "share of patients, n = 10, after 12 weeks of treatment"}, "[11]": {"details": "share of patients, n = 14, after 12 weeks of treatment"}}, "note": "Values joined by “and” are separate entries in the source; they are usually repeats but may differ in a detail not shown here. Equal values may be shown once. “Also recorded” adds a separate entry of the source."}
{"smiles": "CCCCCc1cc(O)c2c(c1)OC(C)(C)[C@@H]1CCC(C)=C[C@@H]21", "note": "[THC, tetrahydrocannabinol]", "values": [{"measurement": "effect on seizures", "setting": "seizures", "result": "pro-convulsant"}]}
{"smiles": "C=C(C)[C@@H]1CCC(C)=C[C@H]1c1c(O)cc(CCCCC)cc1O", "note": "[CBD, cannabidiol]", "values": [{"measurement": "patients with at least a fifty percent reduction in the total number of seizures", "setting": "[1]; TSC patients resistant to existing AED", "result": "half of the patients"}, {"measurement": "patients treated in whom total seizure frequency was reduced", "setting": "[1]; TSC patients, 12 treated", "result": "over 80%"}, {"measurement": "effect on incidence of generalised seizure types tonic, atonic, tonic-clonic and absence seizures", "setting": "[1]; TSC patients, result in words", "result": "dramatically reduce; also recorded: virtually eliminate"}, {"measurement": "effect on the number of focal seizures with impairment", "setting": "[1]; TSC patients, result in words", "result": "markedly reduced"}, {"measurement": "TSC patients with a decrease in total seizure frequency", "setting": "[1]; after 3 months of therapy, 12 patients", "result": "ten out of 12"}, {"measurement": ">50% reduction in seizures (total number of seizures)", "setting": "[1]; individual TSC subjects 1-12, after 12 weeks treatment", "result": "Yes (6×) and No (6×)"}, {"measurement": "Change in baseline (%) for total number of seizures", "setting": "[1]; individual TSC subjects 1-12, after 12 weeks treatment, CBD 5 up to 25 mg/kg/day added to AED", "result": "−93.7% and −15.0% and −71.0% and −33.5% and −80.2% and 0.4% and −100.0% and −9.8% and −74.4% and 108.0% and −39.2% and −63.2%"}, {"measurement": "TSC patients with a greater than 50% reduction in total seizures", "setting": "[1]; over the 12 weeks of treatment, 12 patients", "result": "six of the 12"}, {"measurement": "effect on the number of seizures", "setting": "[1]; patients that do not respond well to existing AED, result in words", "result": "significantly reduces"}, {"measurement": "<50% reduction in seizures, absence seizures", "setting": "[1]; [7]", "result": 0, "unit": "%"}, {"measurement": "<50% reduction in seizures, focal seizures evolving to secondary generalisation", "setting": "[1]; [7]", "result": 50, "unit": "%"}, {"measurement": "<50% reduction in seizures, tonic-clonic seizures", "setting": "[1]; [7]", "result": 0, "unit": "%"}, {"measurement": ">50% reduction in seizures, absence seizures", "setting": "[1]; [7]", "result": 100, "unit": "%"}, {"measurement": ">50% reduction in seizures, focal seizures evolving to secondary generalisation", "setting": "[1]; [7]", "result": 50, "unit": "%"}, {"measurement": ">50% reduction in seizures, tonic-clonic seizures", "setting": "[1]; [7]", "result": 100, "unit": "%"}, {"measurement": "<50% reduction in seizures, atonic seizures", "setting": "[1]; [8]", "result": 0, "unit": "%"}, {"measurement": ">50% reduction in seizures, atonic seizures", "setting": "[1]; [8]", "result": 100, "unit": "%"}, {"measurement": "<50% reduction in seizures, tonic seizures", "setting": "[1]; [9]", "result": 25, "unit": "%"}, {"measurement": ">50% reduction in seizures, tonic seizures", "setting": "[1]; [9]", "result": 75, "unit": "%"}, {"measurement": "<50% reduction in seizures, focal seizures with impairment", "setting": "[1]; [10]", "result": 45, "unit": "%"}, {"measurement": ">50% reduction in seizures, focal seizures with impairment", "setting": "[1]; [10]", "result": 55, "unit": "%"}, {"measurement": "<50% reduction in seizures, total focal seizures", "setting": "[1]; [11]", "result": 55, "unit": "%"}, {"measurement": ">50% reduction in seizures, total focal seizures", "setting": "[1]; [11]", "result": 45, "unit": "%"}, {"measurement": "average reduction in the total number of seizures in the responders", "setting": "[1]; the patients with at least 50% reduction, 12 weeks of treatment", "result": "80.4% and 80%"}, {"measurement": "prevention of seizures", "setting": "seizures in mice", "result": "able to prevent seizures"}, {"measurement": "patients with a marked reduction of seizures", "setting": "[2]", "result": 4}, {"measurement": "patients who became seizure free", "setting": "[3]", "result": "two of the four"}, {"measurement": "controlling seizures", "setting": "[4]", "result": "ineffective"}, {"measurement": "seizure frequency", "setting": "[5]", "result": "improvement"}, {"measurement": "solubility in water", "setting": "[6]", "result": "insoluble"}]}
